{"source": "patent US20130072874A1", "about": "“DEVICE HAVING ARRAY PROVIDED WITH FINE PROTRUSIONS” (HISAMITSU PHARMACEUTICAL CO., INC., priority 2010, published 2013)", "test_system": "shaved dorsal portion of each guinea pig", "assay": "Suppression of UVB-induced pigmentation, serum applied in advance then device", "type": "in vivo", "conditions": "serum 80 μL (20 μL/cm^2) applied, then 150 μm array device; from the 4th day of device application onward", "experimental": "A serum containing 4-(4-hydroxyphenyl)-2-butanol as an active ingredient solution was applied at 80 μL (20 μL/cm^2) to the shaved dorsal portion of each guinea pig, and then, a device having an array provided with microprotrusions was prepared for the purpose of stretching the skin by the microprotrusions of the array. The array was made of polylactic acid as a material and was of 150 μm as the length of the protrusions, 841 protrusions/cm^2 as the density of the protrusions, and 1 cm^2 as the area, and for a device, the array was fixed onto a covering member (holding member) prepared by stacking a rubber-based pressure-sensitive adhesive layer onto a support (3 cm×5 cm) made of nonwoven fabric.", "data": [{"smiles": "CC(O)CCc1ccc(O)cc1", "note": "(stereo not shown) [4-(4-hydroxyphenyl)-2-butanol]", "values": [{"measurement": "effect of suppressing pigmentation attributed to UVB irradiation", "value": "effect of suppressing pigmentation attributed to UVB irradiation was observed"}]}]}
